“Also recorded” adds a separate entry of the source. One block for each compound: values may come before it. Where no end group is shown, it is not given here.
What was measured:
human MCRs = assay: Binding rank order across human MCRs; settings: order of affinity
Experimental: (§1) The human MC1R, MC3R, MC4R and MC5R were cloned by PCR and subcloned into the pcDNA3 expression vector, as previously described by Conde-Frieboes et al.. Cells stably expressing the human MCRs were generated by transfecting the expression vector into BHK570 cells (ATTC) and using 1 mg/mL G418 to select for stable clones. The stable cell lines were cultured in DMEM with glutamax, 10 % FCS, 1 % pen/strep, and 1 mg/mL G418 at 37 °C and 5 % CO2. […] Test compounds were dissolved to a 4 mM concentration in DMSO and diluted in a receptor specific binding buffer. […] A filtration system was employed to separate bound from unbound radioligand.
(§2) Data analysis and statistics

[1] = tested on: intact human white adipose tissue explants; assay: NEFA release in human WAT explants (lipolysis); type: cell-based; settings: for increase in NEFA release compared to vehicle: 100 nM, 3 h stimulation, mean of 6 (α-MSH 3) independent experiments in triplicate wells; for increase in NEFA release compared to vehicle / stimulation of NEFA release / lipolysis (in words): subcutaneous explants from non-obese females; for Emax of lipolysis compared to isoproterenol (in words): intact human WAT explants; for stimulation of NEFA release / lipolysis (in words): 100 nM–10 μM, 3 h, one-tailed t test vs. vehicle
Experimental: (§3) Adipose tissue biopsies used for stimulation of lipolysis were taken from the subcutaneous abdominal region by needle aspiration as previously described. The experimental group consisted of 6 non-diabetic females with a normal/preobese BMI (average BMI = 25.5). All biopsies were transported in sterile containers to the laboratory within 30 min after removal. The biopsies were washed repeatedly with isotonic saline and were used for subsequent culture.
(§4) Induction of NEFA and glycerol release in adipocytes and intact adipose tissue explants was used as a measure of lipolysis with β-adrenergic agonist isoproterenol as a positive control as previously described. When using propranolol, 10 μM was used as final concentration. 250 mg of human adipose tissue was placed in 15 mL tubes, immediately covered with 2.5 mL of preheated (37 °C) hyclone media and preincubated for 24 h. After 24 h, the media was replenished and explants were stimulated with the indicated melanocortin peptide for 3 h before harvesting the supernatant for NEFA and glycerol analysis. In house testing has shown no indications of hypoxia when stimulating explants (data not shown). All test compounds were dissolved to 4 mM in DMSO (highest DMSO concentration of 0.25 % in the assay) and diluted in DPBS buffer + 2 % bovine serum albumin (BSA). Human subcutaneous adipocytes purchased from Zenbio Inc., were used in stimulation of lipolysis (n = 4). These adipocytes have been isolated from obese males. When receiving the cells (and partially during transportation), the cells was differentiated from a pre-state to a mature state before the cells are used for experiments. The cells were handled according to the description from ZenBio Inc. Two hours was chosen as the optimal incubation time span for primary adipocytes, based on similar experiments in other species. […] Measures of melanocortin-stimulated glycerol release were added in explant lipolysis studies.
(§5) Data from the NEFA and the glycerol assay were obtained using the protocol supplied by the manufactures. Released NEFAs were analyzed in Graphpad Prism and one-tailed t test was used to calculate statistical significance between 2 groups (*p < 0.05, **p < 0.01, ***p < 0.001, no * indicates insignificance). Ki values in bindings studies were calculated as Ki = IC50/1 + [radioligand]/Kd. Data from binding studies was analyzed in Graphpad Prism.

[2] = tested on: intact human white adipose tissue explants; assay: Glycerol release in human WAT explants (lipolysis); type: cell-based; settings: subcutaneous explants from non-obese females, 100 nM–10 μM, 3 h; mean of 2 independent experiments in triplicate wells
Experimental: as §3
Induction of NEFA and glycerol release in adipocytes and intact adipose tissue explants was used as a measure of lipolysis with β-adrenergic agonist isoproterenol as a positive control as previously described. When using propranolol, 10 μM was used as final concentration. 250 mg of human adipose tissue was placed in 15 mL tubes, immediately covered with 2.5 mL of preheated (37 °C) hyclone media and preincubated for 24 h. After 24 h, the media was replenished and explants were stimulated with the indicated melanocortin peptide for 3 h before harvesting the supernatant for NEFA and glycerol analysis. In house testing has shown no indications of hypoxia when stimulating explants (data not shown). All test compounds were dissolved to 4 mM in DMSO (highest DMSO concentration of 0.25 % in the assay) and diluted in DPBS buffer + 2 % bovine serum albumin (BSA). Human subcutaneous adipocytes purchased from Zenbio Inc., were used in stimulation of lipolysis (n = 4). These adipocytes have been isolated from obese males. When receiving the cells (and partially during transportation), the cells was differentiated from a pre-state to a mature state before the cells are used for experiments. […]
as §5

[3] = tested on: human subcutaneous adipocytes; assay: NEFA release in differentiated human subcutaneous adipocytes; type: cell-based; settings: for stimulation of NEFA release (in words): human subcutaneous adipocytes (ZenBio, obese males), 1 pM–10 μM, n = 4
Experimental: as §4, §5

MC4R over MC1R = settings: factor; ref [46] Greenfield et al.; cited from earlier work
MC4R over MC3R = settings: factor; ref [46] Greenfield et al.; cited from earlier work
hMC1R = target: T1, hMC1R (Homo sapiens, UniProt Q01726); assay: Competition binding of 125I-NDP-α-MSH to membranes of BHK570 cells expressing hMC1R; settings: competition with fixed 125I-NDP-α-MSH, test compound 1 pM–10 μM, filtration, average of repeated independent experiments ± SEM, n = 3 (α-MSH n = 18)
T1 construct: expressed in transfected cells
T1 sequence (Q01726 whole entry): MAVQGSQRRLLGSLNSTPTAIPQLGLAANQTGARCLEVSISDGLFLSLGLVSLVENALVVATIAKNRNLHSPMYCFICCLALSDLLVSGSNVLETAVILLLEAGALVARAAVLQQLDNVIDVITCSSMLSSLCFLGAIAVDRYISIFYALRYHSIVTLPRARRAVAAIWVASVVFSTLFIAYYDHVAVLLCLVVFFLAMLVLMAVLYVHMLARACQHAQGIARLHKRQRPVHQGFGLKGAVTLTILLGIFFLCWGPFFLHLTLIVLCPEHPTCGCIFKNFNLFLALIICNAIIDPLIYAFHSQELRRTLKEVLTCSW
Experimental: as §1, §2

MC5R = settings: agonist; ref [47]; cited from earlier work
MC3R = settings: antagonist; ref [47]; cited from earlier work
[4] = tested on: human white adipose tissue (WAT) explants; assay: NEFA release in human WAT explants ± propranolol; type: cell-based
Experimental: as §3, §4, §5

WAT = tested on: WAT; design: method as in earlier work; settings: intranasal administration; ref [50] Wellhöner et al.; cited from earlier work
Description: However, it should be taken into account, that there may be downstream MCR mechanisms of propranolol that are unknown, which is a precaution using this antagonist. Depleting the explants with reserpine before stimulation could add additional confidence to the ...

[5] = tested on: mesenchymal stem cell-derived adipocytes; intact adipose tissue explants; settings: mesenchymal stem cell-derived adipocytes or intact adipose tissue explants; ref [52] Hoch et al.; cited from earlier work
Description: (§6) The lack of lipolytic response seen in adipocytes is supported by previous studies by Hoch et al. [[5 ...

[6] = tested on: mesenchymal stem cell-derived adipocytes; settings: ref [52] Hoch et al.; cited from earlier work
Description: as §6

primary mouse adipocytes = settings: mediated by MC2R and MC5R, ref [35], [37], [38]; cited from earlier work
Description: as §6

rabbit adipocytes = settings: ref [39] Richter et al.; cited from earlier work
Description: MC5R is extensively distributed in the periphery, and is reported to regulate sebaceous gland secretion and fatty acid oxidation in skeletal muscle. The melanocortin system has a well-established lipolytic effect in rodent adipose tissues. Studies in murine primary adipocytes and differentiated 3T3-L1 adipocytes show a direct lipolytic effect of MC2R and MC5R when stimulated by various endogenous and synthetic melanocortin agonists.

[7] = tested on: adipocytes isolated from subcutaneous adipose tissue; settings: adipocytes isolated from subcutaneous adipose tissue of non-diabetic human; ref [53] Xue et al.; cited from earlier work
Description: (§7) ACTH is a larger peptide than both α-MSH and the synthetic melanocortin compounds used in this study.

[8] = tested on: adipocytes or intact human adipose tissue; settings: own finding "supported by other studies", ref [51], [52]; cited from earlier work
Description: as §7

Compound: CC(=O)N[C@H](CCCNC(=N)N)C(=O)N[C@H]1CSSC[C@@H](C(N)=O)NC(=O)[C@H](Cc2c[nH]c3ccccc23)NC(=O)[C@H](CCCNC(=N)N)NC(=O)[C@@H](Cc2ccccc2)NC(=O)[C@H](Cc2c[nH]cn2)NC(=O)[C@H](CCC(=O)O)NC1=O [LY2112688]
- binding rank order (human MCRs): MC4R > MC3R > MC1R
- increase in NEFA release compared to vehicle [1]: 46%
- Emax of lipolysis compared to isoproterenol (in words) [1]: relatively lower Emax
- stimulation of NEFA release / lipolysis (in words) [1]: significantly stimulated lipolysis; also recorded: stimulated a low, though significant, release of NEFA; also recorded: significantly stimulate release of NEFA
- stimulation of glycerol release (in words) [2]: stimulated release of glycerol
- stimulation of NEFA release (in words) [3]: failed to stimulate NEFA release
- increased affinity for MC4R over MC1R (MC4R over MC1R): more than 30
- increased affinity for MC4R over MC3R (MC4R over MC3R): more than 100

Compound: CCCC[C@H](NC(C)=O)C(=O)N[C@H]1CC(=O)NCCCC[C@@H](C(N)=O)NC(=O)[C@H](Cc2c[nH]c3ccccc23)NC(=O)[C@H](CCCNC(=N)N)NC(=O)[C@@H](Cc2ccc3ccccc3c2)NC(=O)[C@@H]2CCCN2C1=O [PG-901]
- Ki (hMC1R): 2700 ± 153 nM
- increase in NEFA release compared to vehicle [1]: 38%
- Emax of lipolysis compared to isoproterenol (in words) [1]: relatively lower Emax
- stimulation of NEFA release / lipolysis (in words) [1]: significantly stimulated lipolysis; also recorded: stimulated a low, though significant, release of NEFA; also recorded: significantly stimulate release of NEFA
- stimulation of glycerol release (in words) [2]: stimulated release of glycerol
- stimulation of NEFA release (in words) [3]: failed to stimulate NEFA release
- binding to MC5R (in words) (MC5R): high affinity
- binding to MC3R (in words) (MC3R): high affinity

Compound: CC(C)NCC(O)c1ccc(O)c(O)c1 (stereo not drawn) [isoproterenol]
- increase in NEFA release compared to vehicle [1]: 114%
- stimulation of NEFA release / lipolysis (in words) [1]: potent release of NEFA
- stimulation of NEFA release (in words) [3]: potent release of NEFA

Compound: CC(C)NCC(O)COc1cccc2ccccc12 (stereo not drawn) [propranolol]
- decrease of LY2112688-stimulated NEFA release (in words) ([4]; 10 μM propranolol + LY2112688 (100 nM–10 μM), female human subcutaneous explants, 3 independent experiments in triplicate wells): did not significantly decrease the release of NEFA
- decrease of PG-901-stimulated NEFA release (in words) ([4]; 10 μM propranolol + PG-901 (100 nM–10 μM), female human subcutaneous explants, 3 independent experiments in triplicate wells): significantly decreased the release of NEFA
- decrease of isoproterenol-stimulated NEFA release (in words) ([4]; 10 μM propranolol + isoproterenol, female human subcutaneous explants, 3 independent experiments in triplicate wells): significantly decreased the release of NEFA
- inhibition of NEFA release on co-incubation (in words) ([4]; propranolol co-incubation, MC4R/MC5R-mediated lipolysis, overview figure): inhibits NEFA release

Compound: MSH/ACTH(4-10): intranasally administered melanocortin fragment in Wellhöner et al. (MEHFRWG; Corticotropin; UniProt P01189 141-147, looked up, fragment)
- glycerol concentrations in WAT (in words) (WAT): increased glycerol concentrations in WAT

Compound: NDP-α-MSH
- effect on lipolysis (in words) [5]: did not find an effect on lipolysis
- cAMP response (in words) [6]: weak cAMP response

- binding rank order (human MCRs): MC1R > MC4R > MC3R > MC5R
Compound: SYSMEHFRWGKPVGKKRRPVKVYPNGAEDESAEAFPLEF [ACTH]
- lipolytic capacity (in words) ([1]; intact human adipose tissue): no lipolytic capacity
- stimulation of NEFA release / lipolysis (in words) [1]: failed to stimulate NEFA
- stimulation of glycerol release (in words) [2]: failed to stimulate NEFA and glycerol release
- lipolytic capacity (in words) ([3]; adipocytes): no lipolytic capacity
- stimulation of NEFA release (in words) [3]: failed to stimulate NEFA release
- lipolytic capacity (in words) (primary mouse adipocytes): lipolytic capacity
- effect on lipolysis (in words) (rabbit adipocytes): direct effect
- stimulation of lipolysis (in words) [7]: stimulated lipolysis
- lipolytic capacity (in words) [8]: no lipolytic capacity
